From patent US7879911B2 (priority 2007, dated 2011) come the findings set out here.

The assay addresses Lethal factor protease (Bacillus anthracis, UniProt P15917). As to the kind of experiment: biochemical. The conditions noted are these: LF (FRET) Ki^app.

Sequence of Lethal factor protease (P15917 34-809 limits assumed): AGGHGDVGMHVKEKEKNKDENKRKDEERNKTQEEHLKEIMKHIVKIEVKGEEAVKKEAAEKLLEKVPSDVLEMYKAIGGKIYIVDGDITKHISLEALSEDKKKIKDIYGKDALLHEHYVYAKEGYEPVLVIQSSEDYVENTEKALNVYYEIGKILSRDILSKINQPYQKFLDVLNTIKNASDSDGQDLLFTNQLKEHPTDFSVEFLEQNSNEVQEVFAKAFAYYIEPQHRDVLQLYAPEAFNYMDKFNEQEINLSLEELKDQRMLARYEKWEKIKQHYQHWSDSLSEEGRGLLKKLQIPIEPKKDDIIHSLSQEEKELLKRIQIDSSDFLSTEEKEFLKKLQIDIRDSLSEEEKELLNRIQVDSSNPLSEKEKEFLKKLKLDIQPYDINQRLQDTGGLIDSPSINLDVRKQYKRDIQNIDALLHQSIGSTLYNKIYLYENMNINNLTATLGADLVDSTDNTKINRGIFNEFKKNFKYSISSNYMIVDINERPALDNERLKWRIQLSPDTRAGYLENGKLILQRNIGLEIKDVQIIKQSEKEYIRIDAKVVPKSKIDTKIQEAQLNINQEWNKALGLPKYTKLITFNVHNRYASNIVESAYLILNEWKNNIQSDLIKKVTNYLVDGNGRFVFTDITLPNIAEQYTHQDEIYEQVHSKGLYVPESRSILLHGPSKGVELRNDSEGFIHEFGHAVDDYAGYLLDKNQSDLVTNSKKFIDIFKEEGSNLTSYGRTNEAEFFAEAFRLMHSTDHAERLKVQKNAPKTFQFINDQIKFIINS

As to `Cc1cc(O[C@H](CCCCO)C(=O)NO)ccc1F` [Compound 168176, (R)-2-(4-fluoro-3-methylphenoxy)-N,6-dihydroxyhexanamide], the Ki was determined as 1780 nM.
Take `Cc1cc(CNCCCC[C@@H](Oc2ccc(F)c(C)c2)C(=O)NO)ccc1F` [Compound 168097, (R)-6-(4-Fluoro-3-methylbenzylamino)-2-(4-fluoro-3-methylphenoxy)-N-hydroxyhexanamide]: the Ki came to 210 nM.
Consider `Cc1cc(OCC(=O)NO)ccc1F` [Compound 167182, 2-(4-Fluoro-3-methyl-phenoxy)-N-hydroxy-acetamide], for which the Ki was determined as 29200 nM.
For the compound `O=C(COc1ccc(F)cc1)NO` [Compound 168128, 2-(4-fluorophenoxy)-N-hydroxyacetamide], the Ki stood at 61100 nM.
The same measure for `O=C(COc1ccc(Cl)cc1)NO` [Compound 168129, 2-(4-chlorophenoxy)-N-hydroxyacetamide]: 83900 nM; for `Cc1cc(O[C@H](CCCCNCc2ccco2)C(=O)NO)ccc1F` [Compound 168184]: 750 nM.
Regarding `Cc1cc(OCC(=O)NO)cc(C)c1F` [Compound 168115, 2-(4-Fluoro-3,5-dimethyl-phenoxy)-N-hydroxy-acetamide], the Ki is 2520 nM.
`Cc1cc(COCCCC[C@@H](Oc2ccc(F)c(C)c2)C(=O)NO)ccc1F` [Compound 168113, (R)-6-(4-Fluoro-3-methylbenzyloxy)-2-(4-fluoro-3-methylphenoxy)-N-hydroxyhexanamide]: the Ki worked out at 540 nM.
`Cc1cc(O[C@H](CCN2CCC[C@@H](CN3CCCCC3)C2)C(=O)NO)ccc1F` [Compound 168143, (R)-2-(4-fluoro-3-methylphenoxy)-N-hydroxy-4-((S)-3-(piperidin-1-ylmethyl)piperidin-1-yl)butanamide] yielded a Ki of 1670 nM.
Compound `CCCCC(C(=O)NO)[S+]([O-])c1ccc(F)c(C)c1` (single isomer, unassigned) [Compound 167351, syn-2-(4-Fluoro-3-methyl-benzenesulfinyl)-hexanoic acid hydroxyamide] gave a Ki of 10300 nM.
In the case of `Cc1cc(O[C@H](C/C=C/COCc2ccccc2)C(=O)NO)ccc1F` [Compound 168185], the Ki is 770 nM.
As to `O=C(COc1ccc(F)c(F)c1)NO` [Compound 168130, 2-(3,4-difluorophenoxy)-N-hydroxyacetamide], the Ki came out at 26200 nM.
`CCCCC(C(=O)NO)S(=O)(=O)c1ccc(F)c(C)c1` (stereo not shown) [Compound 167304, 2-(4-Fluoro-3-methyl-benzenesulfonyl)-hexanoic acid hydroxyamide] gave a Ki of 30000 nM.
Compound `CCCCC(Sc1ccc(F)c(C)c1)C(=O)NO` (stereo not shown) [Compound 167303, 2-(4-Fluoro-3-methyl-phenylsulfanyl)-hexanoic acid hydroxyamide] had a Ki of 2500 nM.
Compound `O=C(COc1ccc(F)c(Cl)c1)NO` [Compound 168127, 2-(3-chloro-4-fluorophenoxy)-N-hydroxyacetamide] came in with a Ki of 31200 nM.
`CCCCC(C(=O)NO)[S+]([O-])c1ccc(F)c(C)c1` (single isomer, unassigned) [Compound 167352, anti-2-(4-Fluoro-3-methyl-benzenesulfinyl)-hexanoic acid hydroxyamide] came in with a Ki of 67000 nM.
For `CCC[C@@H](Oc1ccc(F)c(C)c1)C(=O)NO` [Compound 168090, (R)-2-(4-Fluoro-3-methyl-phenoxy)-pentanoic acid hydroxyamide] the value was 3700 nM; for `Cc1cc(O[C@H](CCCCNCc2cccc(-c3ccc(F)cc3)c2)C(=O)NO)ccc1F` [Compound 168178, (R)-2-(4-fluoro-3-methylphenoxy)-6-((4′-fluorobiphenyl-3-yl)methylamino)-N-hydroxyhexanamide], 130 nM.
As to `Cc1cc(O[C@H](CCO)C(=O)NO)ccc1F` [Compound 168093, (R)-2-(4-fluoro-3-methylphenoxy)-N,4-dihydroxybutanamide], the Ki was 23100 nM.
For the compound `Cc1cc(CNCCCC[C@@H](Oc2cc(C)c(F)c(C)c2)C(=O)NO)ccc1F` [Compound 168100, (R)-2-(4-fluoro-3,5-dimethylphenoxy)-6-(4-fluoro-3-methylbenzylamino)-N-hydroxyhexanamide], the Ki was determined as 580 nM.
As for `Cc1cc(CCCN(C)CC[C@@H](Oc2ccc(F)c(C)c2)C(=O)NO)ccc1F` [Compound 168142, (R)-2-(4-fluoro-3-methylphenoxy)-4-((3-(4-fluoro-3-methylphenyl)propyl)(methyl)amino)-N-hydroxybutanamide], the Ki was determined as 1120 nM.
For `Cc1cc(COCCCC[C@@H](Oc2cc(C)c(F)c(C)c2)C(=O)NO)ccc1F` [Compound 168135, (R)-2-(4-fluoro-3,5-dimethylphenoxy)-6-(4-fluoro-3-methylbenzyloxy)-N-hydroxyhexanamide] the value was 3030 nM; for `Cc1cc(O[C@H](CCCCNCC2CC3CCC2C3)C(=O)NO)ccc1F` (stereo partly shown) [Compound 168183], 170 nM.
For the compound `CCCCC(C(=O)NO)[S+]([O-])c1ccc(F)c(C)c1` (stereo not shown) [Compound 167316, 2-(4-Fluoro-3-methyl-benzenesulfinyl)-hexanoic acid hydroxyamide], the Ki turned out to be 18000 nM.
The compound `CCCCC(Oc1ccc(F)c(C)c1)C(=O)NO` (stereo not shown) [Compound 167163, 2-(4-Fluoro-3-methyl-phenoxy)-hexanoic acid hydroxyamide] had a Ki of 5500 nM.
Regarding `O=C(NO)[C@@H](C/C=C\COCc1ccccc1)Oc1ccc(F)c(Cl)c1` [Compound 168160, (R,Z)-6-(benzyloxy)-2-(3-chloro-4-fluorophenoxy)-N-hydroxyhex-4-enamide], the Ki came out at 1250 nM.
In turn, `Cc1cc(O[C@H](CCCCNCc2cccs2)C(=O)NO)ccc1F` [Compound 168177, (R)-2-(4-fluoro-3-methylphenoxy)-N-hydroxy-6-(thiophen-2-ylmethylamino)hexanamide] gave a Ki of 210 nM.
In the case of `O=C(NO)[C@@H](CCCCOCc1ccccc1)Oc1ccc(F)c(Cl)c1` [Compound 168187], the Ki came out at 1070 nM.
